This note sets out measurements from patent US20040267017A1, “3-pyridyl or 4-isoquinolinyl thiazoles as c17, 20 lyase inhibitors” (priority 2001, published 2004).

Where two headings read alike, the source gives them in different places.

The test system of one data set is powdery mildew. The experiment in a line: Test against powdery mildew.
In data set [1] the target is T1, Recombinant murine C17,20 lyase (mLyase) (Mus musculus, UniProt P27786).
T1 construct: made in house; host or cells: Sf9 insect cells (baculovirus), by analogy ('in a similar manner'); enriched microsomes
T1 sequence (P27786 1-507): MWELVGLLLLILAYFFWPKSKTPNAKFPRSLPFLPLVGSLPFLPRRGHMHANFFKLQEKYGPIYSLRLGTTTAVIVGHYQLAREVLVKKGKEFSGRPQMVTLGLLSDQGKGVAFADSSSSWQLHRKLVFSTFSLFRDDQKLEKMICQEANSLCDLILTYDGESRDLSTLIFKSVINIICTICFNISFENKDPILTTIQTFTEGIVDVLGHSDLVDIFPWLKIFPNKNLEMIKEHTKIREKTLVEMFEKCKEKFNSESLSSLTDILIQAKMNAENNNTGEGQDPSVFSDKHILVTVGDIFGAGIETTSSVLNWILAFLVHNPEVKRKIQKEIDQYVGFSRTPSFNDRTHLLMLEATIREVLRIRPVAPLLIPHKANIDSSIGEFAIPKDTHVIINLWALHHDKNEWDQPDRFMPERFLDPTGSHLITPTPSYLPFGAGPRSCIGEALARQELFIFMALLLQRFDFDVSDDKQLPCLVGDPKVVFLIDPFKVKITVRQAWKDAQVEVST
The experiment in a line: Murine C17,20 lyase biochemical assay (DHEA formation, RIA/SPA, cytochrome b5 omitted). The settings on record: Table V. How it is done:
Recombinant human C17,20 lyase (hLyase) was expressed in (Sf9) cells, and hLyase enriched microsomes were prepared from cultures as described in the following reference: Baculovirus Expression of Bovine P450 in Sf9 Cells and Comparison with Expression in Yeast, Mammalian Cells, and E. Coli. Barnes H. J.; Jenkins, C. M.; Waterman, M. R., Archives of Biochemistry and Biophysics (1994) 315(2)489-494. Recombinant murine C17,20 lyase (mLyase) was prepared in a similar manner. hLyase and mLyase preparations were titrated using assay conditions to determine protein concentrations to be used for assays. […]
(§1) Enzymatic reactions were allowed to run for 2 h at rt with gentle agitation. […] The concentration of DHEA generated by hLyase was determined by radioimmunoassay (RIA) as described below.
(§2) 0.08 μCi ^3H-DHEA (1.6 μCi/mL) (NEN (NET814)) in scintillation proximity assay (SPA) buffer (100 mM Tris-HCl, pH 7.5, 50 mM NaCl, 0.5% BSA (Sigma A9647), 0.2% Tween 20) was added to each well. […] Mixtures were allowed to equilibrate with gentle agitation for 1 h followed by an overnight equilibration with no agitation. ^3H-DHEA bound to the SPA beads was determined by scintillation counting.
The concentration of DHEA generated in each reaction was calculated from raw data (CPM) and the standard curve. […]

In data set [2] the target is T2, Recombinant human C17,20 lyase (hLyase) (Homo sapiens, UniProt P05093).
T2 construct: made in house; host or cells: Sf9 insect cells (baculovirus); hLyase-enriched microsomes
T2 sequence (P05093 1-508): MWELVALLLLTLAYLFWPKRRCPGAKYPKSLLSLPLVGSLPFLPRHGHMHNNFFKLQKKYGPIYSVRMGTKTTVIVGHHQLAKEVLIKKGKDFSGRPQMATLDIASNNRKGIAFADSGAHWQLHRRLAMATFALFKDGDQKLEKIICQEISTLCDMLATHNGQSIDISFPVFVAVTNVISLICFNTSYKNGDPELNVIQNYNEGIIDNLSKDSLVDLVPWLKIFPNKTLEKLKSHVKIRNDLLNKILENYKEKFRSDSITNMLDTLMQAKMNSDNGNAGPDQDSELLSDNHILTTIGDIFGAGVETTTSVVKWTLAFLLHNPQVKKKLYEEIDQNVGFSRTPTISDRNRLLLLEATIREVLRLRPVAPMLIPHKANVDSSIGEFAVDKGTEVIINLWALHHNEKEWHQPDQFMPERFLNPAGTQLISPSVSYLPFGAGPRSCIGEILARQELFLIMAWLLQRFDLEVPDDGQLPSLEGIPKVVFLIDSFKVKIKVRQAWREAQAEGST
Description: Human C17,20 lyase biochemical assay (DHEA formation, RIA/SPA). How it is done:
Recombinant human C17,20 lyase (hLyase) was expressed in (Sf9) cells, and hLyase enriched microsomes were prepared from cultures as described in the following reference: Baculovirus Expression of Bovine P450 in Sf9 Cells and Comparison with Expression in Yeast, Mammalian Cells, and E. Coli. Barnes H. J.; Jenkins, C. M.; Waterman, M. R., Archives of Biochemistry and Biophysics (1994) 315(2)489-494. Recombinant murine C17,20 lyase (mLyase) was prepared in a similar manner. hLyase and mLyase preparations were titrated using assay conditions to determine protein concentrations to be used for assays. Both mLyase and hLyase assays were run in an identical manner except that cytochrome b5 was omitted in the murine assays.
Test compounds were diluted […], serially in six steps, with 100% DMSO starting from 800 μM going to 51.2 nM reserving the first 2 columns for the generation of a standard curve. Each of these compound solutions in 100% DMSO was further diluted twenty fold in H2O to obtain compound concentrations ranging from 40 μM to 2.56 nM in 5% DMSO. […]
as §1, §2
The concentration of DHEA generated in each reaction was calculated from raw data (CPM) and the standard curve. The lyase inhibitory activity of each compound was determined as the concentration of DHEA generated in the presence of test compounds, expressed as a percent inhibition compared to the DHEA concentration generated in the absence of test compounds (1−(nM DHEA formed in the presence of test compound/nM DHEA formed in the absence of test compounds)×100).

The mark [3] stands for this setting: read-out: inhibitory IC50 against C17,20 human lyase.

The term melting point denotes the temperature of the solid-liquid transition. Molecule `Cl.Clc1ccc(-c2csc(-c3cnccc3Cl)n2)cc1` gave a melting point of 176.5 to 183.5 °C.

`Cc1ccncc1-c1nc(Cc2ccc(Cl)cc2)cs1.Cl`: the melting point lay in the range of 165.5 to 170 °C.

For orientation: IC50 means the concentration that gives 50% inhibition. In the case of `Clc1ccc(-c2csc(-c3cccnc3)n2)c(Cl)c1` [2-(3-pyridyl)-4-(2,4-dichlorophenyl)thiazole, reference compound], the “% Inhibition against Powdery Mildew” value with powdery mildew (*Statistically insignificant) was found to be 80%. For the same molecule, the IC50 turned out to be 1400 nM in data set [1] and 406 nM in data set [2] (setting [3]).

In the case of `Cc1ccncc1-c1nc(-c2ccc(Cl)cc2Cl)cs1` [2-[4-methyl-3-pyridyl)-4-(2,4-dichlorophenyl)thiazole], the “% Inhibition against Powdery Mildew” value is given as “devoid of activity” with powdery mildew (*Statistically insignificant; listed as 2-[4-methyl-3-pyridyl)-4-(2,4dichlorophenyl)thiazole) and 10%* with powdery mildew (*Statistically insignificant, listed as drawing 261). The IC50 in data set [1] is 39.7 nM; in data set [2] (Table V, read-out: Human Lyase IC50), 15.1 nM; in data set [2] (setting [3]), 15 nM.

As for `Cc1sc(-c2cccnc2)nc1Nc1ccccc1` [Example 6], the melting point turned out to be 110 °C.
